PubChem BioAssay AID328 (DTP/NCI, 2004)
“And” between values parts separate entries of the source, which are not always exact repeats. Equal entries are not always repeated. Inconclusive results and toxic doses are left out.

System: BDF1 mice, P388 leukemia ip, median survival T/C
Test: NCI In Vivo Anticancer Drug Screen. Data for tumor model P388 Leukemia (intraperitoneal) in B6D2F1 (BDF1) mice
Conditions: endpoint: median survival time, higher = longer survival
In short: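 Steps: implant the tumour, treat one group with compound and another with vehicle, record survival, then divide treated by control.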

[1] = dose: 100.0 mg/kg/injection, schedule: Q01DX009 (ip), vehicle: saline with Tween-80
[2] = dose: 50.0 mg/kg/injection, schedule: Q01DX009 (ip), vehicle: saline with Tween-80
[3] = dose: 100.0 mg/kg/injection, schedule: Q04DX003 (ip), vehicle: saline
[4] = dose: 200.0 mg/kg/injection, schedule: Q04DX003 (ip), vehicle: saline
[5] = dose: 100.0 mg/kg/injection, schedule: Q04DX003 (ip), vehicle: saline with Tween-80
[6] = dose: 200.0 mg/kg/injection, schedule: Q04DX003 (ip), vehicle: saline with Tween-80
[7] = dose: 1.0 mg/kg/injection, schedule: Q01DX009 (ip), vehicle: saline
[8] = dose: 200.0 mg/kg/injection, schedule: Q01DX009 (ip), vehicle: saline with Tween-80
[9] = dose: 400.0 mg/kg/injection, schedule: Q01DX009 (ip), vehicle: saline with Tween-80
[10] = dose: 100.0 mg/kg/injection, schedule: Q01DX001 (ip), vehicle: Klucel (hydroxypropylcellulose) (HPC)
[11] = dose: 200.0 mg/kg/injection, schedule: Q01DX001 (ip), vehicle: Klucel (hydroxypropylcellulose) (HPC)
[12] = dose: 400.0 mg/kg/injection, schedule: Q01DX001 (ip), vehicle: Klucel (hydroxypropylcellulose) (HPC)
[13] = dose: 6.25 mg/kg/injection, schedule: Q01DX009 (ip), vehicle: Klucel (hydroxypropylcellulose) (HPC)
[14] = dose: 12.5 mg/kg/injection, schedule: Q01DX009 (ip), vehicle: Klucel (hydroxypropylcellulose) (HPC)
[15] = dose: 25.0 mg/kg/injection, schedule: Q01DX009 (ip), vehicle: Klucel (hydroxypropylcellulose) (HPC)
[16] = dose: 50.0 mg/kg/injection, schedule: Q01DX009 (ip), vehicle: Klucel (hydroxypropylcellulose) (HPC)
[17] = dose: 100.0 mg/kg/injection, schedule: Q01DX009 (ip), vehicle: Klucel (hydroxypropylcellulose) (HPC)

SMILES: CC(=O)[O][Pb]([O]C(C)=O)([c]1ccccc1)[c]1ccccc1
- T/C (dose: 44.0 mg/kg/injection, schedule: Q01DX009 (ip), vehicle: saline with Tween-80): 177 % of control
- T/C (dose: 66.0 mg/kg/injection, schedule: Q01DX009 (ip), vehicle: saline with Tween-80): 184 % of control
- T/C [1]: 201 % of control
- T/C (dose: 150.0 mg/kg/injection, schedule: Q01DX009 (ip), vehicle: saline with Tween-80): 93 % of control

SMILES: CC(C)=NN1C(=O)c2ccccc2C1=O
- T/C (dose: 25.0 mg/kg/injection, schedule: Q01DX009 (ip), vehicle: saline with Tween-80): 101 % of control
- T/C [2]: 101 % of control
- T/C [1]: 100 % of control

SMILES: OCC1(O)CCC1
- T/C (dose: 75.0 mg/kg/injection, schedule: Q01DX009 (ip), vehicle: saline): 95 % of control
- T/C [3]: 96 % of control
- T/C (dose: 150.0 mg/kg/injection, schedule: Q01DX009 (ip), vehicle: saline): 104 % of control
- T/C [4]: 103 % of control
- T/C (dose: 300.0 mg/kg/injection, schedule: Q01DX009 (ip), vehicle: saline): 109 % of control
- T/C (dose: 400.0 mg/kg/injection, schedule: Q04DX003 (ip), vehicle: saline): 100 % of control

SMILES: CC(C)CCCC(C)C1CCC2C3CC=C4CC([Se][As](C)C)CCC4(C)C3CCC12C (configuration not stated)
- T/C [2]: 118 % of control
- T/C [1]: 111 % of control

SMILES: COc1c(Br)cc(/C=C(/C)[N+](=O)[O-])cc1Br
- T/C [5]: 114 % of control
- T/C [6]: 160 % of control

SMILES: CC(CCCN(CCCl)CCCl)Nc1ccnc2cc(Cl)ccc12 (configuration not stated)
- T/C (dose: 0.5 mg/kg/injection, schedule: Q04DX003 (ip), vehicle: saline): 100 % of control
- T/C (dose: 0.66 mg/kg/injection, schedule: Q01DX009 (ip), vehicle: saline): 154 % of control
- T/C [7]: 154 % of control
- T/C (dose: 1.0 mg/kg/injection, schedule: Q04DX003 (ip), vehicle: saline): 100 % of control
- T/C (dose: 2.0 mg/kg/injection, schedule: Q04DX003 (ip), vehicle: saline): 111 % of control

SMILES: CCCCCCCCCCCCCCCCOc1ccccc1CNc1cccc(S(=O)(=O)F)c1
- T/C [1]: 95 % of control
- T/C [8]: 95 % of control
- T/C [9]: 95 % of control

SMILES: O[O][Ge]([c]1ccccc1)([c]1ccccc1)[c]1ccccc1
- T/C [10]: 100 % of control
- T/C [11]: 100 % of control
- T/C [12]: 100 % of control

SMILES: N#CSc1ccc(Nc2ccc(SC#N)cc2)cc1
- T/C [13]: 100 % of control
- T/C [14]: 100 % of control
- T/C [15]: 118 % of control
- T/C (dose: 35.0 mg/kg/injection, schedule: Q01DX009 (ip), vehicle: Klucel (hydroxypropylcellulose) (HPC)): 108 % of control
- T/C [16]: 109 % of control
- T/C (dose: 53.0 mg/kg/injection, schedule: Q01DX009 (ip), vehicle: Klucel (hydroxypropylcellulose) (HPC)): 105 % of control
- T/C (dose: 80.0 mg/kg/injection, schedule: Q01DX009 (ip), vehicle: Klucel (hydroxypropylcellulose) (HPC)): 109 % of control and 110 % of control
- T/C (dose: 120.0 mg/kg/injection, schedule: Q01DX009 (ip), vehicle: Klucel (hydroxypropylcellulose) (HPC)): 120 % of control and 122 % of control

SMILES: CC(=O)N1CCc2cc(N)ccc21
- T/C (dose: 50.0 mg/kg/injection, schedule: Q04DX003 (ip), vehicle: saline): 95 % of control
- T/C [3]: 95 % of control
- T/C [4]: 91 % of control

SMILES: COc1ccc(C2(C(=O)O)CCCC2)cc1
- T/C [1]: 95 % of control
- T/C [5]: 104 % of control
- T/C [8]: 91 % of control
- T/C [6]: 100 % of control
- T/C [9]: 91 % of control
- T/C (dose: 400.0 mg/kg/injection, schedule: Q04DX003 (ip), vehicle: saline with Tween-80): 112 % of control

SMILES: CCOC(=O)C(C(=O)OCC)=C(C#N)c1c[nH]c2ccccc12
- T/C [14]: 90 % of control
- T/C [15]: 104 % of control
- T/C [16]: 104 % of control
- T/C (dose: 100.0 mg/kg/injection, schedule: Q04DX003 (ip), vehicle: Klucel (hydroxypropylcellulose) (HPC)): 95 % of control
- T/C (dose: 200.0 mg/kg/injection, schedule: Q04DX003 (ip), vehicle: Klucel (hydroxypropylcellulose) (HPC)): 100 % of control
- T/C (dose: 400.0 mg/kg/injection, schedule: Q04DX003 (ip), vehicle: Klucel (hydroxypropylcellulose) (HPC)): 109 % of control

SMILES: O=C(CBr)N1CCC2(CC1)SSC1(CCN(C(=O)CBr)CC1)S2
- T/C (dose: 3.12 mg/kg/injection, schedule: Q01DX009 (ip), vehicle: saline with Tween-80): 112 % of control
- T/C (dose: 6.25 mg/kg/injection, schedule: Q01DX009 (ip), vehicle: saline with Tween-80): 95 % of control and 111 % of control
- T/C (dose: 10.0 mg/kg/injection, schedule: Q04DX003 (ip), vehicle: saline with Tween-80): 122 % of control
- T/C (dose: 20.0 mg/kg/injection, schedule: Q04DX003 (ip), vehicle: saline with Tween-80): 120 % of control
- T/C (dose: 25.0 mg/kg/injection, schedule: Q04DX003 (ip), vehicle: saline with Tween-80): 123 % of control
- T/C (dose: 40.0 mg/kg/injection, schedule: Q04DX003 (ip), vehicle: saline with Tween-80): 114 % of control
- T/C (dose: 50.0 mg/kg/injection, schedule: Q04DX003 (ip), vehicle: saline with Tween-80): 113 % of control
- T/C [1]: 112 % of control
- T/C [5]: 118 % of control
- T/C [6]: 102 % of control

SMILES: Cc1ccc(S(=O)(=O)N/N=C/C(Br)=C(/Br)C(=O)O)cc1
- T/C [13]: 119 % of control
- T/C [14]: 124 % of control
- T/C [16]: 155 % of control
- T/C [17]: 153 % of control

SMILES: CCOC(=O)C(=Cc1ccc(O)c(OC)c1)C(=O)OCC
- T/C (dose: 100.0 mg/kg/injection, schedule: Q01DX001 (ip), vehicle: saline with Tween-80): 90 % of control
- T/C (dose: 200.0 mg/kg/injection, schedule: Q01DX001 (ip), vehicle: saline with Tween-80): 95 % of control
- T/C (dose: 400.0 mg/kg/injection, schedule: Q01DX001 (ip), vehicle: saline with Tween-80): 104 % of control

SMILES: c1ccc2c[n+](CCCCCCCCCC[n+]3ccc4ccccc4c3)ccc2c1
- T/C [7]: 104 % of control
- T/C (dose: 2.0 mg/kg/injection, schedule: Q01DX009 (ip), vehicle: saline): 113 % of control
- T/C (dose: 2.5 mg/kg/injection, schedule: Q01DX009 (ip), vehicle: saline): 110 % of control and 115 % of control
- T/C (dose: 2.6 mg/kg/injection, schedule: Q01DX009 (ip), vehicle: saline): 120 % of control
- T/C (dose: 4.0 mg/kg/injection, schedule: Q01DX009 (ip), vehicle: saline): 110 % of control
- T/C (dose: 5.0 mg/kg/injection, schedule: Q01DX009 (ip), vehicle: saline): 107 % of control
- T/C (dose: 10.0 mg/kg/injection, schedule: Q01DX009 (ip), vehicle: saline): 103 % of control and 112 % of control

SMILES: O=[N+]([O-])c1cccc(/C=C/c2ccccc2)c1
- T/C [10]: 100 % of control
- T/C [17]: 95 % of control
- T/C [11]: 95 % of control
- T/C (dose: 200.0 mg/kg/injection, schedule: Q01DX009 (ip), vehicle: Klucel (hydroxypropylcellulose) (HPC)): 95 % of control
- T/C [12]: 90 % of control
- T/C (dose: 400.0 mg/kg/injection, schedule: Q01DX009 (ip), vehicle: Klucel (hydroxypropylcellulose) (HPC)): 90 % of control

SMILES: CCOCCOCCOc1nc(F)c(Cl)cc1Cl
- T/C [5]: 100 % of control
- T/C [6]: 118 % of control

SMILES: c1ccc(C[n+]2ccc(-c3cc[n+](Cc4ccccc4)cc3)cc2)cc1
- T/C (dose: 1.25 mg/kg/injection, schedule: Q01DX010 (ip), vehicle: saline): 86 % of control
- T/C (dose: 156.0 micrograms/kg/injection, schedule: Q01DX010 (ip), vehicle: saline): 104 % of control
- T/C (dose: 313.0 micrograms/kg/injection, schedule: Q01DX010 (ip), vehicle: saline): 104 % of control
- T/C (dose: 625.0 micrograms/kg/injection, schedule: Q01DX010 (ip), vehicle: saline): 104 % of control

SMILES: OCC(Br)(Br)Br
- T/C (dose: 100.0 mg/kg/injection, schedule: Q01DX009 (ip), vehicle: other): 95 % of control
- T/C (dose: 200.0 mg/kg/injection, schedule: Q01DX009 (ip), vehicle: other): 95 % of control

SMILES: O=C1c2ccccc2C(=O)N1/N=C/C=C/c1ccccc1
- T/C (dose: 87.5 mg/kg/injection, schedule: Q01DX009 (ip), vehicle: saline with Tween-80): 106 % of control
- T/C (dose: 175.0 mg/kg/injection, schedule: Q01DX009 (ip), vehicle: saline with Tween-80): 95 % of control
- T/C (dose: 350.0 mg/kg/injection, schedule: Q01DX009 (ip), vehicle: saline with Tween-80): 87 % of control
